Measured values as given in paper PMC11862611 (RSC Medicinal Chemistry, 2025).

Assays:
[1] = tested on: L. amazonensis promastigotes; test: anti-promastigote assay, L. amazonensis (resazurin); format: cell-based; conditions: Leishmania amazonensis; promastigote parasites (Table 1); read-out: L.amaz EC50
Method: 4.2.3.1. Anti-promastigote assays […]
Protocol 1: L. amazonensis promastigotes in Medium 199 (100 μL at 5 × 105 mL−1) were incubated in 96-well plates with compounds in triplicate (amphotericin B was used as a positive control, and untreated parasites with DMSO as a negative control) at 26 °C for 72 h. Resazurin Solution (10 μL) was then added and the plate incubated at 26 °C for 4 h prior to measurement using a fluorescence plate reader (555 - 585 nm). EC50 values were calculated using sigmoidal regression analysis (GraphPad Prism).
Protocol 2: Same procedure as above with the modification of a 48 h incubation time as opposed to 72 h and Leishmania amazonensis (MHOM/Br/75/JOSEFA) in Schneider’s insect medium in the place of Leishmania amazonensis (MHOM/Br/75/JOSEFA) in Medium 199. […]
well-1 in a 24-well plate with round cover slips and incubated for 24 h at 37 °C and 5% CO2. […]

[2] = tested on: L. major PX promastigotes; test: on-target growth inhibition, add-back cell line (PX); format: cell-based, Leishmania major
LmjIPCS = target: T1, LmjIPCS (Leishmania major, UniProt E9AFX2); test: HPTLC based LmjIPCS assay; format: biochemical; conditions: microsomes treated with 5 mM compound; NBD-C6-ceramide and PI
T1 construct: made in house
T1 sequence (E9AFX2 whole entry): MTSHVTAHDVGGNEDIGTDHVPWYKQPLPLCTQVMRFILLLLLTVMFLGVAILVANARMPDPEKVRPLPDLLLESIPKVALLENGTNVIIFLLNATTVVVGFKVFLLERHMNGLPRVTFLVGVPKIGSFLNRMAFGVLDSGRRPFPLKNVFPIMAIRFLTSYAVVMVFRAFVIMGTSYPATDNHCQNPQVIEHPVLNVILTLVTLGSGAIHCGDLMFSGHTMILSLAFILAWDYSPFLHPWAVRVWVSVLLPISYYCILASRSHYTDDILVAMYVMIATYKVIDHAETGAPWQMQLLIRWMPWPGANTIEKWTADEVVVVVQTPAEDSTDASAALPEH
Description: CF was originally selected from a screen for inhibitors of the sphingolipid synthase, (L. majIPCS) and to verify that this new analogue retained this profile we applied the same assays as used before. […] To support inhibition of the IPCS, the HPTLC biochemical assay described by Mina et al.[16] was employed. In this, using a microsomal preparation of the L. majIPCS, a fluorescent substrate NBD-C6-ceramide was combined with PI and the two drugs. Following the reaction, the product, NBD-C6-IPC, and residual starting material were separated via HPTLC and analysed by fluorescence spectroscopy.
°C and 5% CO2. Aliquots of resazurin solution (10 μL) were then added and the cells were incubated at 37 °C and 5% CO2 for 4 h. Cell-viability measurement was carried out using a fluorescence plate reader. […]
days. Infected ear thicknesses were measured once or twice a week with a caliper gauge, and the lesion sizes were expressed as the difference between the thickness of infected and non-infected ear. On day 41 animals were sacrificed and the fluorescence measured (485 - 528 nm) and parasite load quantified using a limiting dilution assay (LDA).
Data on lesion progression were analysed for statistical significance by using the Dunnett test as part of the one-way ANOVA (GraphPad Prism 8 software). […]
Product quantification was carried out using a fluorescence plate reader […]

[3] = target: T2, H1 (h) (antagonist radioligand) (Homo sapiens, UniProt P35367); test: radioligand displacement assay, H1; format: binding
T2 construct: purchased Eurofins (contract assay); host or cells: cell membrane homogenates
T2 sequence (P35367 whole entry): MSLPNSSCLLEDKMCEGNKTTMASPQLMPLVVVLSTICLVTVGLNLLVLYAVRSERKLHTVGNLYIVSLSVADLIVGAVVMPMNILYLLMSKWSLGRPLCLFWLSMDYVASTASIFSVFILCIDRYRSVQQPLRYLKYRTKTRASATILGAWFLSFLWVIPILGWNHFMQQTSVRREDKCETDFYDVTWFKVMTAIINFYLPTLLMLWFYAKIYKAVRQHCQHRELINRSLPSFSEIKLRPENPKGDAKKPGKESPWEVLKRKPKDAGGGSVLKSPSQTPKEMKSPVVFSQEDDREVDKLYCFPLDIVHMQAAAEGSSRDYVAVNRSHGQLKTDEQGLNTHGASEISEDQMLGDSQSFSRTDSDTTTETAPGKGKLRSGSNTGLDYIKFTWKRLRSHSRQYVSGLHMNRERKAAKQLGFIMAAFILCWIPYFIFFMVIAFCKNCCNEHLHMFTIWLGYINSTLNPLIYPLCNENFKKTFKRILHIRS
Method: (§1) 4.2.3.6. Radioligand Binding Assay (Supplemental Figure S3)
(§2) These assays were run by Eurofins under contract to LifeArc FR095-0011887. A representative protocol describing the human histamine H2 receptor (antagonist radioligand) assay is shown below.12 Cell membrane homogenates (24 µg protein) are incubated for 120 min at 22°C with 0.075 nM [125I]APT in the absence or presence of the test compound in a buffer containing 50 mM Na2HPO4/KH2PO4 (pH […]
(§3) 7.4) and 0.05% BSA. […] Following

5-HTB2 receptors = target: T3, 5-HTB2 receptors (Homo sapiens, UniProt P41595); test: radioligand displacement assay, 5-HT2B; format: binding
T3 construct: purchased Eurofins (contract assay); host or cells: cell membrane homogenates
T3 sequence (P41595 whole entry): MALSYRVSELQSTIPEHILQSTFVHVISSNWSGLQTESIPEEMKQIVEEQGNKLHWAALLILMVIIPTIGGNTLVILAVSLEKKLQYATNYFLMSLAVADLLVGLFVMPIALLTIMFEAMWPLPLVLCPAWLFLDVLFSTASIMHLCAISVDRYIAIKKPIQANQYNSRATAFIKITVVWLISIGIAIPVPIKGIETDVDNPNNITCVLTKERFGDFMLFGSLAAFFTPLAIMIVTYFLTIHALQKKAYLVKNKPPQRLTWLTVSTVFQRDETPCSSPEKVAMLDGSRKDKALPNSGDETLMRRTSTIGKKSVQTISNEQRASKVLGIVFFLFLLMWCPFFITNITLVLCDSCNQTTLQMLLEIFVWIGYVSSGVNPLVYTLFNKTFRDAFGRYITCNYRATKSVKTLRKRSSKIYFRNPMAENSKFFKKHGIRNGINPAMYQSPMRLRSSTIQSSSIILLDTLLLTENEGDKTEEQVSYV
Method: as §1, §2, §3

[4] = tested on: panel of neurotransmitter receptors; test: radioligand displacement assay, whole panel; format: binding, human
Method: as §1, §2, §3

## C[C@H]1CCCN1CCCO[C@H](c1ccccc1)c1ccc(Cl)cc1 [38l]
[1]
  EC50: 41 nM
[2]
  sensitivity in the add-back cell line (PX): Sensitivity was restored
LmjIPCS
  NBD-C6-IPC product formation (HPTLC): No product was observed
[3]
  effective binding, radioligand displacement, H1: > 40%
5-HTB2 receptors
  affinity, radioligand displacement, 5-HTB2: lower affinity
[4]
  binding profile across receptor panel: greater selectivity
